Numbered stars: 1 amine (or outer) side, 2 acyl side, 3 side chain; on linkers, the order of the positions; unused ones are H or OH. Square brackets hold non-standard residues; d marks the D form. Side chains are listed from the residue outwards. Peptide text beside a SMILES is read from it. * marks the point of attachment. γGlu = O=C(O)[C@H](CCC(=O)[*:2])N[*:1]; Stearoyl = CCCCCCCCCCCCCCCCCC(=O)*; Aib = CC(C)(N)C(=O)O

One series has as its target T1, human GLP-1 receptor (Homo sapiens, UniProt P43220).
T1 construct: expressed in transfected cells; host or cells: HEK-293
The series is described as follows: cAMP response (HTRF) of HEK-293 cells stably expressing human GLP-1 receptor. It is filed as cell-based. As to conditions: Table 8; read-out: EC50 hGLP-1R. As to the method:
(§1) cAMP content of cells was determined using a kit from Cisbio Corp. (cat. no. 62AM4PEJ) based on HTRF (Homogenous Time Resolved Fluorescence). For preparation, cells were split into T175 culture flasks and grown overnight to near confluency in medium (DMEM/10% FBS). Medium was then removed and cells washed with PBS lacking calcium and magnesium, followed by proteinase treatment with accutase (Sigma-Aldrich cat. no. A6964). Detached cells were washed and resuspended in assay buffer (1×HBSS; 20 mM HEPES, 0.1% BSA, 2 mM IBMX) and cellular density determined. They were then diluted to 400000 cells/ml and 25 μl-aliquots dispensed into the wells of 96-well plates. For measurement, 25 μl of test compound in assay buffer was added to the wells, followed by incubation for 30 minutes at room temperature.
(§2) Potencies of peptidic compounds at the GLP-1, glucagon and GIP receptors were determined by exposing cells expressing human glucagon receptor (hGlucagon R), human GIP receptor (hGIP-R) or human GLP-1 receptor (hGLP-1 R) to the listed compounds at increasing concentrations and measuring the formed cAMP as described in Methods.

Another series has as its target T2, human glucagon receptor (Homo sapiens, UniProt P47871).
T2 construct: expressed in transfected cells; host or cells: HEK-293
The series is described as follows: cAMP response (HTRF) of HEK-293 cells stably expressing human glucagon receptor. The series is classed as cell-based. To be noted: Table 8; read-out: EC50 hGlucagon R. As to the method: as §1, §2
Background: Time-resolved FRET reads energy transfer from a long-lived donor to a nearby acceptor.

In another series the target is T3, human GIP receptor (Homo sapiens, UniProt P48546).
T3 construct: expressed in transfected cells; host or cells: HEK-293
T3 sequence (P48546 22-466): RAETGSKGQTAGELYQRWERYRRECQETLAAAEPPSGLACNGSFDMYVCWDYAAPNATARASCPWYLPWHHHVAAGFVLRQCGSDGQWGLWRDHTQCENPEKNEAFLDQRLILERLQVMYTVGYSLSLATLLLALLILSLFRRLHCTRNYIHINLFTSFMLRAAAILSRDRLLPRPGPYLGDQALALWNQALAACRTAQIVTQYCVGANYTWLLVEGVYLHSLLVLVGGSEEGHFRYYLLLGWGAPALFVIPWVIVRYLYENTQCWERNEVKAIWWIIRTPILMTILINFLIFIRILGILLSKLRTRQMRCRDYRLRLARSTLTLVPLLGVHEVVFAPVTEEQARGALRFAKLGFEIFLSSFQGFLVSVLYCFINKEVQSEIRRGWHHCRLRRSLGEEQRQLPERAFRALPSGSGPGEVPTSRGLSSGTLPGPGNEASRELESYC
The series is described as follows: cAMP response (HTRF) of HEK-293 cells stably expressing human GIP receptor. To be noted: Table 8; read-out: EC50 hGIP R. The series is classed as cell-based. The procedure: Agonism of compounds for the receptors was determined by functional assays measuring cAMP response of HEK-293 cell lines stably expressing human GLP-1, GIP or glucagon receptor.
as §1, with “temperature. After addition of HTRF reagents diluted in lysis buffer (kit components), the plates were incubated for 1 hr, followed by measurement of the fluorescence ratio at 665/616 nm. In vitro potency of agonists was quantified by determining the concentrations that caused 50% activation of maximal response (EC50).” for “temperature.”
as §2

Series [1] is described as follows: Thioflavin T (ThT) assay for physical stability (fibrillation). The series is classed as physicochemical. As to conditions: 3 mg/ml, 100 mM acetate pH 4.5 with m-cresol, 37° C. shaking. Summed up: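 Peptides at 3 mg/ml final with 100 μM ThT final in 100 mM acetate pH 4.5 containing 2.7 mg/mL m-cresol, eight replicates. Stressed at 37° C by repeated cycles of 10 s shaking at 960 rpm and 50 s rest. Fluorescence read every 20 minutes; lag time in hours taken from the sigmoidal kinetic curve.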

T1 sequence (P43220 24-463): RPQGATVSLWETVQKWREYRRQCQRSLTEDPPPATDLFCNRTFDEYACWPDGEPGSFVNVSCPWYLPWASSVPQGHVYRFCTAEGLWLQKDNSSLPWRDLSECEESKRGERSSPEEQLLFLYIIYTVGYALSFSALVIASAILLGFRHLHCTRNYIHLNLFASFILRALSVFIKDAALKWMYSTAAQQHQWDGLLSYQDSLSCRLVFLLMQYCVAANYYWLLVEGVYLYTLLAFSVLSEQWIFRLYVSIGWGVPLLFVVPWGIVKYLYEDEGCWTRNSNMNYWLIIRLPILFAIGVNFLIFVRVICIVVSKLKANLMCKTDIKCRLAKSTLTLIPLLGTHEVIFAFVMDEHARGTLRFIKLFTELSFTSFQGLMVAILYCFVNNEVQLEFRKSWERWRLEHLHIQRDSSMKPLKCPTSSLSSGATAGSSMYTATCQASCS
T2 sequence (P47871 26-477): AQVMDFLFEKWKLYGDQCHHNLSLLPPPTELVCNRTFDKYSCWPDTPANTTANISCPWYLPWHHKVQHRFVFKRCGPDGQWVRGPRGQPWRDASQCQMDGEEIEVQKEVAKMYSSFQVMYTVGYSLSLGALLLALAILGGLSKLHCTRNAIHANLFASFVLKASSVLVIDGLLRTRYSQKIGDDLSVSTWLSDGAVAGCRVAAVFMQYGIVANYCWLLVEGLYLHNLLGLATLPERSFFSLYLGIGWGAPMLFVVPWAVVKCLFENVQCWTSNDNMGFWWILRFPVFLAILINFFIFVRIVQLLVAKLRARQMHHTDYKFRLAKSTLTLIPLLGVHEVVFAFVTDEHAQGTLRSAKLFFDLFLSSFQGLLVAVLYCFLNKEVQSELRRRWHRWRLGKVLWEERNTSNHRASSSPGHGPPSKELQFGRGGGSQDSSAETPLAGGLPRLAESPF

A word on the EC50: it is the concentration giving half of the maximal effect. Consider `CCCCCCCCCCCCCCCCCC(=O)N[C@@H](CCC(=O)NCCCC[C@H](NC(=O)[C@H](CC(C)C)NC(=O)[C@H](CCCCN)NC(=O)[C@H](CO)NC(=O)[C@H](CC(C)C)NC(=O)[C@H](CC(=O)O)NC(=O)[C@H](CO)NC(=O)[C@@H](NC(=O)[C@H](Cc1ccccc1)NC(=O)[C@@H](NC(=O)CNC(=O)[C@H](Cc1c[nH]cn1)NC(=O)C(C)(C)NC(=O)[C@@H](N)Cc1c[nH]cn1)[C@@H](C)O)[C@@H](C)O)C(=O)N[C@@H](CCC(=O)O)C(=O)N[C@@H](CCC(=O)O)C(=O)N[C@@H](CCC(N)=O)C(=O)N[C@@H](CCCNC(=N)N)C(=O)N[C@@H](CCC(N)=O)C(=O)N[C@@H](CCCCN)C(=O)N[C@@H](CCC(=O)O)C(=O)N[C@@H](Cc1ccccc1)C(=O)N[C@H](C(=O)N[C@@H](CCC(=O)O)C(=O)N[C@@H](Cc1c[nH]c2ccccc12)C(=O)N[C@@H](CC(C)C)C(=O)N[C@@H](CCCCN)C(=O)N[C@@H](C)C(=O)NCC(=O)NCC(=O)N1CCC[C@H]1C(=O)N1CCC[C@H]1C(=O)N[C@@H](CO)C(=O)NC(C)(C)C(=O)N[C@@H](CCCCN)C(=O)N1CCC[C@H]1C(=O)N1CCC[C@H]1C(=O)N1CCC[C@H]1C(=O)N[C@@H](CCCCN)C(N)=O)[C@@H](C)CC)C(=O)O` [SEQ ID NO: 21, H-Aib-H-G-T-F-T-S-D-L-S-K-L-K[gGlu-Stea]-E-E-Q-R-Q-K-E-F-I-E-W-L-K-A-G-G-P-P-S-Aib-K-P-P-P-K-NH2] (H-H[Aib]HGTFTSDLSKLK([γGlu-Stearoyl])EEQRQKEFIEWLKAGGPPS[Aib]KPPPK-NH2), for which the half-maximal effective concentration (EC50) at human GLP-1 receptor came out at 3.4 pM; at human glucagon receptor it was 1.9 pM; on human GIP receptor, 2.6 pM. Besides, in series [1], the “Lag time before increase” value was more than 45 h.
